Measured values from article PMC5811606, “Characterization of ^111In-labeled Glucose-Dependent Insulinotropic Polypeptide as a Radiotracer for Neuroendocrine Tumors” (Scientific Reports, 2018).
Where two headings read alike, the source gives them in different places.

Legend:
[1] = Biodistribution study, BHK-GIPR tumor mice; format: in vivo, BALB/c nude mice; conditions: female, mouse, iv, total radioactivity, BHK-GIPR tumor BALB/c nude mice, i.v., 0.2 µg, mean n=5; for tissue to tissue ratio at 24 h: 24 h p.i.; for tissue to tissue ratio at 1 h: 1 h p.i.
Procedure: (§1) All animal experiments were approved by the Animal Welfare Body of the Radboud University, Nijmegen, The Netherlands and carried out in accordance with their guidelines. Six to eight weeks old, female BALB/c nude mice and C3H mice were purchased from Janvier labs (Le Genest Saint Isle, France). For all in vivo experiments, 6-8 weeks old female BALB/c nude mice were injected subcutaneously in the right shoulder with 0.2 ml of a 2.5 × 10^7 cells/ml suspension of BHK-GIPR transfected cells or with 0.2 ml of a 2.5 × 10^7 cells/ml suspension of NES2Y cells mixed with matrigel (2:1) in the right shoulder. When the tumor reached a diameter of 2-5 mm, mice were randomly divided in groups.
(§2) BALB/c nude mice bearing BHK-GIPR transfected tumors were injected intravenously with approximately 3 MBq (peptide dose 0.2 µg = 0.04 nmol) of [Lys^37(^111In-DTPA)]N-acetyl-GIP1-42 via the tail vein. At various time points after injection (1, 4 and 24 hours), mice were euthanized by CO2/O2 suffocation and blood, tumor and other relevant tissues were dissected, weighed and measured in a well type gamma counter. The percentage injected dose per gram (%ID/g) was calculated for each tissue. To determine whether the GIP1-42 uptake was GIPR mediated, 25 µg of unlabeled GIP1-42 was co-injected in a separate group (n = 5) and mice were euthanized four hours post-injection. BALB/c nude mice bearing NES2Y tumors (n = 5) were injected intravenously with approximately 3 MBq (peptide dose 0.2 µg = 0.04 nmol) of [Lys^37(^111In-DTPA)]N-acetyl-GIP1-42 via the tail vein. One hour after injection, mice were euthanized by CO2/O2 suffocation and blood, tumor and other relevant tissues were dissected, weighed and measured in a well type gamma counter. The percentage injected dose per gram (%ID/g) was determined for each tissue. To determine whether the GIP1-42 uptake was GIPR mediated, 25 µg of unlabeled GIP1-42 was co-injected in a separate group (n = 2) and mice were euthanized one hours post-injection.

[2] = Biodistribution study, NES2Y tumor mice; format: in vivo; conditions: female, mouse, iv, total radioactivity, i.v., 0.2 µg; for tissue uptake at 1 h: BALB/c nude; for tissue to tissue ratio at 1 h: NES2Y tumor BALB/c nude mice
Procedure: as §1, §2

[3] = tumor/heart, 0.2 ug, read-out: Tumor/Heart
[4] = tumor/kidney, 0.2 ug, read-out: Tumor/Kidney
[5] = tumor/muscle, 0.2 ug, read-out: Tumor/Muscle

SMILES: CC[C@H](C)[C@H](NC(=O)[C@H](CO)NC(=O)[C@H](Cc1ccc(O)cc1)NC(=O)[C@H](CC(=O)O)NC(=O)[C@H](CO)NC(=O)[C@@H](NC(=O)[C@H](Cc1ccccc1)NC(=O)[C@@H](NC(=O)CNC(=O)[C@H](CCC(=O)O)NC(=O)[C@H](C)NC(=O)[C@H](Cc1ccc(O)cc1)NC(C)=O)[C@@H](C)O)[C@@H](C)CC)C(=O)N[C@@H](C)C(=O)N[C@@H](CCSC)C(=O)N[C@@H](CC(=O)O)C(=O)N[C@@H](CCCCN)C(=O)N[C@H](C(=O)N[C@@H](Cc1c[nH]cn1)C(=O)N[C@@H](CCC(N)=O)C(=O)N[C@@H](CCC(N)=O)C(=O)N[C@@H](CC(=O)O)C(=O)N[C@@H](Cc1ccccc1)C(=O)N[C@H](C(=O)N[C@@H](CC(N)=O)C(=O)N[C@@H](Cc1c[nH]c2ccccc12)C(=O)N[C@@H](CC(C)C)C(=O)N[C@@H](CC(C)C)C(=O)N[C@@H](C)C(=O)N[C@@H](CCC(N)=O)C(=O)N[C@@H](CCCCN)C(=O)NCC(=O)N[C@@H](CCCCN)C(=O)N[C@@H](CCCCN)C(=O)N[C@@H](CC(N)=O)C(=O)N[C@@H](CC(=O)O)C(=O)N[C@@H](Cc1c[nH]c2ccccc12)C(=O)N[C@@H](CCCCNC(=O)CN(CCN(CCN(CC(=O)O)CC(=O)O)CC(=O)O)CC(=O)O)C(=O)N[C@@H](Cc1c[nH]cn1)C(=O)N[C@@H](CC(N)=O)C(=O)N[C@H](C(=O)N[C@H](C(=O)N[C@@H](CCC(N)=O)C(=O)O)[C@@H](C)O)[C@@H](C)CC)C(C)C)[C@@H](C)CC [[Lys^37(^111In-DTPA)]N-acetyl-GIP1-42, metal not drawn]
- tissue to tissue ratio at 24 h ([1]; tumor/blood, 0.2 ug, read-out: Tumor/Blood): 130
- tissue to tissue ratio at 4 h ([1]; tumor/blood, 4 h p.i. + xs (25 µg unlabeled GIP1-42), read-out: Tumor/Blood): 29.8
- tissue to tissue ratio at 1 h [1, 3]: 23.6
- tissue to tissue ratio at 4 h ([1]; tumor/heart, 0.2 ug, 4 h p.i., read-out: Tumor/Heart): 29
- tissue to tissue ratio at 24 h [1, 3]: 25.5
- tissue to tissue ratio at 4 h ([1]; tumor/heart, 4 h p.i. + xs (25 µg unlabeled GIP1-42), read-out: Tumor/Heart): 8.89
- tissue to tissue ratio at 1 h [1, 4]: 0.023
- tissue to tissue ratio at 4 h ([1]; tumor/kidney, 0.2 ug, 4 h p.i., read-out: Tumor/Kidney): 0.014
- tissue to tissue ratio at 24 h [1, 4]: 0.011
- tissue to tissue ratio at 4 h ([1]; tumor/kidney, 4 h p.i. + xs (25 µg unlabeled GIP1-42), read-out: Tumor/Kidney): 0.004
- tissue to tissue ratio at 1 h ([1]; tumor/lung, 0.2 ug, read-out: Tumor/Lung): 8.64
- tissue to tissue ratio at 4 h ([1]; tumor/lung, 0.2 ug, 4 h p.i., read-out: Tumor/Lung): 10.1
- tissue to tissue ratio at 4 h ([1]; tumor/lung, 4 h p.i. + xs (25 µg unlabeled GIP1-42), read-out: Tumor/Lung): 2.68
- tissue to tissue ratio at 1 h [1, 5]: 35
- tissue to tissue ratio at 4 h ([1]; tumor/muscle, 0.2 ug, 4 h p.i., read-out: Tumor/Muscle): 40.4
- tissue to tissue ratio at 24 h [1, 5]: 36.4
- tissue to tissue ratio at 4 h ([1]; tumor/muscle, 4 h p.i. + xs (25 µg unlabeled GIP1-42), read-out: Tumor/Muscle): 12.4
- tissue uptake at 1 h ([2]; NES2Y tumor, 0.2 ug, 1 h p.i., mean n=5, read-out: Tumor uptake): 0.7 ± 0.2 %ID/g
- tissue uptake at 1 h ([2]; NES2Y tumor, 1 h p.i. + xs (25 µg unlabeled GIP1-42), mean, n=5, read-out: Tumor uptake): 0.6 ± 0.01 %ID/g
- tissue uptake at 1 h ([2]; duodenum, 0.2 ug, 1 h p.i., mean n=5, read-out: Duodenum uptake): 0.42 %ID/g
- tissue uptake at 1 h ([2]; duodenum, 1 h p.i. + xs (25 µg unlabeled GIP1-42), mean, n=5, read-out: Duodenum uptake): 0.369 %ID/g
- tissue uptake at 1 h ([2]; heart, 0.2 ug, 1 h p.i., mean n=5, read-out: Heart uptake): 0.135 %ID/g
- tissue uptake at 1 h ([2]; heart, 1 h p.i. + xs (25 µg unlabeled GIP1-42), mean, n=5, read-out: Heart uptake): 0.103 %ID/g
- tissue uptake at 1 h ([2]; kidney, 0.2 ug, 1 h p.i., mean n=5, read-out: Kidney uptake): 184 %ID/g
- tissue uptake at 1 h ([2]; kidney, 1 h p.i. + xs (25 µg unlabeled GIP1-42), mean, n=5, read-out: Kidney uptake): 180 %ID/g
- tissue uptake at 1 h ([2]; liver, 0.2 ug, 1 h p.i., mean n=5, read-out: Liver uptake): 1.1 %ID/g
- tissue uptake at 1 h ([2]; liver, 1 h p.i. + xs (25 µg unlabeled GIP1-42), mean, n=5, read-out: Liver uptake): 0.827 %ID/g
- tissue uptake at 1 h ([2]; lung, 0.2 ug, 1 h p.i., mean n=5, read-out: Lung uptake): 0.485 %ID/g
- tissue uptake at 1 h ([2]; lung, 1 h p.i. + xs (25 µg unlabeled GIP1-42), mean, n=5, read-out: Lung uptake): 0.474 %ID/g
- tissue uptake at 1 h ([2]; muscle, 0.2 ug, 1 h p.i., mean n=5, read-out: Muscle uptake): 0.069 %ID/g
- tissue uptake at 1 h ([2]; muscle, 1 h p.i. + xs (25 µg unlabeled GIP1-42), mean, n=5, read-out: Muscle uptake): 0.057 %ID/g
- tissue uptake at 1 h ([2]; pancreas, 0.2 ug, 1 h p.i., mean n=5, read-out: Pancreas uptake): 0.201 %ID/g
- tissue uptake at 1 h ([2]; pancreas, 1 h p.i. + xs (25 µg unlabeled GIP1-42), mean, n=5, read-out: Pancreas uptake): 0.158 %ID/g
- tissue uptake at 1 h ([2]; spleen, 0.2 ug, 1 h p.i., mean n=5, read-out: Spleen uptake): 0.462 %ID/g
- tissue uptake at 1 h ([2]; spleen, 1 h p.i. + xs (25 µg unlabeled GIP1-42), mean, n=5, read-out: Spleen uptake): 0.341 %ID/g
- tissue uptake at 1 h ([2]; stomach, 0.2 ug, 1 h p.i., mean n=5, read-out: Stomach uptake): 0.336 %ID/g
- tissue uptake at 1 h ([2]; stomach, 1 h p.i. + xs (25 µg unlabeled GIP1-42), mean, n=5, read-out: Stomach uptake): 0.283 %ID/g
- tissue uptake at 1 h ([2]; whole blood, 0.2 ug, 1 h p.i., mean n=5, read-out: Blood uptake): 0.175 %ID/g
- tissue uptake at 1 h ([2]; whole blood, 1 h p.i. + xs (25 µg unlabeled GIP1-42), mean, n=5, read-out: Blood uptake): 0.214 %ID/g
- tissue to tissue ratio at 1 h ([2]; tumor and blood, 0.2 ug, 1 h p.i., mean n=5, read-out: Tumor/Blood): 3.96
- tissue to tissue ratio at 1 h ([2]; tumor and blood, 1 h p.i. + xs (25 µg unlabeled GIP1-42), mean, n=5, read-out: Tumor/Blood): 3.01
- tissue to tissue ratio at 1 h ([2]; tumor and heart, 0.2 ug, 1 h p.i., mean n=5, read-out: Tumor/Heart): 4.83
- tissue to tissue ratio at 1 h ([2]; tumor and heart, 1 h p.i. + xs (25 µg unlabeled GIP1-42), mean, n=5, read-out: Tumor/Heart): 6.09
- tissue to tissue ratio at 1 h ([2]; tumor and kidney, 0.2 ug, 1 h p.i., mean n=5, read-out: Tumor/Kidney): 0.004
- tissue to tissue ratio at 1 h ([2]; tumor and kidney, 1 h p.i. + xs (25 µg unlabeled GIP1-42), mean, n=5, read-out: Tumor/Kidney): 0.004
- tissue to tissue ratio at 1 h ([2]; tumor and lung, 0.2 ug, 1 h p.i., mean n=5, read-out: Tumor/Lung): 1.38
- tissue to tissue ratio at 1 h ([2]; tumor and lung, 1 h p.i. + xs (25 µg unlabeled GIP1-42), mean, n=5, read-out: Tumor/Lung): 1.33
- tissue to tissue ratio at 1 h ([2]; tumor and muscle, 0.2 ug, 1 h p.i., mean n=5, read-out: Tumor/Muscle): 9.43
- tissue to tissue ratio at 1 h ([2]; tumor and muscle, 1 h p.i. + xs (25 µg unlabeled GIP1-42), mean, n=5, read-out: Tumor/Muscle): 11.1
